Drawing on patent US12410179B2, “Modulators of TNF alpha activity and uses thereof” (RayThera, Inc., priority 2023, dated 2025), this text covers IC50 for 50 compounds.

One may read the IC50 as the concentration that inhibits the measured activity by half.

Structures are written as SMILES.

The target in the assay is TNFα (Homo sapiens, UniProt P01375). As to the kind of experiment: HEK-Blue hTNFα reporter assay. Type of assay: cell-based. Also on record: purchased R&D biosystem (R&D Systems) 210-TA-020/CF. Conditions: HEK-Blue hTNFα reporter cells, SEAP readout; read-out: IC50 Range. A digest of the protocol:
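Compounds preincubated 1 h at 37 °C with recombinant hTNFα ([…]), then added to HEK293 NF-κB-SEAP reporter cells, 10000 cells/well, 24 h at 37 °C. SEAP read by QUANTI-Blue at OD620; % inhibition versus stimulated and unstimulated controls, IC50 by 4-parameter fit.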
For orientation: In a reporter assay the amount or activity of a reporter protein is the signal.

TNFα, sequence (P01375 77-233 limits assumed): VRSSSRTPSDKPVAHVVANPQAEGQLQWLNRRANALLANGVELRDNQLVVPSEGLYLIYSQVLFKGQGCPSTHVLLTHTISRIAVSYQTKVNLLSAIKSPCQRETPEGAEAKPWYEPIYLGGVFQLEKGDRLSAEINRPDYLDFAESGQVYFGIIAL

As for `C[C@](O)(CC#N)c1ncc(-c2ccn3nc4c(c3c2)[C@@H]2C[C@H]4NC(=O)c3cccc(OC(F)F)c32)cn1` [Example 164], the IC50 was less than 0.025 µM.

As for `CN1C(=O)c2cccc(OC(F)F)c2[C@H]2C[C@@H]1c1nn3ccc(-c4ccc([C@]5(N)C[C@@](C)(C(=O)O)C5)nc4)cc3c12` [Example 165], the IC50 is less than 0.025 µM.

For `CN1C(=O)c2cccc(OC(F)F)c2[C@H]2C[C@@H]1c1nn3cc(F)c(-c4ncc(C5(O)COC5)cn4)cc3c12` [Example 166], the IC50 was less than 0.025 µM.

Take `CN1C(=O)c2cccc(OC(F)F)c2[C@H]2C[C@@H]1c1nn3ccc(-c4cnc([C@]5(N)C[C@](C)(C#N)C5)nc4)cc3c12` [Example 167]: the IC50 is less than 0.025 µM.

As for `CN1C(=O)c2cccc(OC(F)F)c2[C@H]2C[C@@H]1c1nn3ccc(-c4cnc([C@]5(N)C[C@@H](O)C5)c(F)c4)cc3c12` [Example 168], the IC50 is less than 0.025 µM.

For the compound `CN1C(=O)c2cccc(OC(F)F)c2[C@H]2C[C@@H]1c1nn3ccc(-c4cnc([C@]5(N)C[C@H](O)C5)c(F)c4)cc3c12` [Example 169], the IC50 was less than 0.025 µM.

As for `[2H]C([2H])([2H])N1C(=O)c2cccc(OC(F)F)c2[C@H]2C[C@@H]1c1nn3ccc(-c4cnc([C@]5(N)C[C@@H](C#N)C5)nc4)cc3c12` [Example 170], the 50% inhibitory concentration (IC50) was less than 0.025 µM.

On to `CN1C(=O)c2cccc(OC(F)F)c2[C@H]2C[C@@H]1c1nn3ccc(-c4cnc([C@@H](O)CN5CCC5)nc4)cc3c12` [Example 171], for which the IC50 lay within 0.025 to 0.1 µM.

Consider `CN1C(=O)c2cccc(OC(F)F)c2[C@H]2C[C@@H]1c1nn3ccc(-c4cnc([C@H](O)CN5CCC5)nc4)cc3c12` [Example 172], for which the IC50 is 0.1 to 1 µM.

For `C[C@]1(C#N)C[C@](N)(c2ncc(-c3ccn4nc5c(c4n3)[C@@H]3C[C@H]5NC(=O)c4cccc(OC(F)F)c43)cc2F)C1` [Example 173], the IC50 was less than 0.025 µM.

`C[C@]1(C#N)C[C@](N)(c2ncc(-c3nc4c5c(nn4cc3F)[C@H]3C[C@@H]5c4c(OC(F)F)cccc4C(=O)N3)cc2F)C1` [Example 174]: the IC50 was less than 0.025 µM.

For the compound `[2H]C([2H])([2H])N1C(=O)c2cccc(OC(F)F)c2[C@H]2C[C@@H]1c1nn3cnc(-c4cnc([C@]5(N)C[C@@](C)(C#N)C5)c(F)c4)cc3c12` [Example 175], the IC50 is less than 0.025 µM.

Consider `[2H]C([2H])([2H])N1C(=O)c2cccc(OC(F)F)c2[C@H]2C[C@@H]1c1nn3ccc(-c4cnc([C@]5(N)C[C@@H](C#N)C5)nc4)nc3c12` [Example 176], for which the IC50 is less than 0.025 µM.

Consider `[2H]C([2H])([2H])N1C(=O)c2cccc(OC(F)F)c2[C@H]2C[C@@H]1c1nn3ccc(-c4cnc(C5(N)COC5)nc4)nc3c12` [Example 177], for which the IC50 lay in the range of 0.025 to 0.1 µM.

On to `[2H]C([2H])([2H])N1C(=O)c2cccc(OC(F)F)c2[C@H]2C[C@@H]1c1nn3cc(F)c(-c4cnc(C5(N)COC5)nc4)nc3c12` [Example 178], for which the IC50 was less than 0.025 µM.

Turning to `[2H]C([2H])([2H])N1C(=O)c2cccc(OC(F)F)c2[C@H]2C[C@@H]1c1nn3ccc(-c4cnc([C@]5(N)C[C@H](C#N)C5)nc4)nc3c12` [Example 179], the IC50 was less than 0.025 µM.

Consider `[2H]C([2H])([2H])N1C(=O)c2cccc(OC(F)F)c2[C@H]2C[C@@H]1c1nn3ccc(-c4cnc([C@]5(O)C[C@@](C)(N)C5)nc4)nc3c12` [Example 180], for which the IC50 was in the range of 0.1 to 1 µM.

With `[2H]C([2H])([2H])N1C(=O)c2cccc(OC(F)F)c2[C@H]2C[C@@H]1c1nn3cc(C)c(-c4cnc(C5(N)CCC5)nc4)cc3c12` [Example 181], the IC50 is less than 0.025 µM.

For `[2H]C([2H])([2H])N1C(=O)c2cccc(OC(F)F)c2[C@H]2C[C@@H]1c1nn3ccc(-c4ccc(C5(N)CCC5)nc4)nc3c12` [Example 182], the half-inhibitory concentration (IC50) is less than 0.025 µM.

`[2H]C([2H])([2H])N1C(=O)c2cccc(OC(F)F)c2[C@H]2C[C@@H]1c1nn3cc(F)c(-c4cnc([C@]5(N)C[C@](O)(C(F)(F)F)C5)nc4)nc3c12` [Example 183]: the concentration for half-maximal inhibition (IC50) was less than 0.025 µM.

Regarding `NC1(c2ncc(-c3ccn4nc5c(c4c3)[C@@H]3C[C@H]5NC(=O)c4cccc(OC(F)F)c43)cn2)CCC1` [Example 184], the IC50 is less than 0.025 µM.

For the compound `[2H]C([2H])([2H])N1C(=O)c2cccc(OC(F)F)c2[C@H]2C[C@@H]1c1nn3cc(F)c(-c4cnc([C@]5(O)C[C@@](C)(N)C5)nc4)nc3c12` [Example 185], the IC50 lay within 0.025 to 0.1 µM.

For `NC1(c2ccc(-c3ccn4nc5c(c4n3)[C@@H]3C[C@H]5NC(=O)c4cccc(OC(F)F)c43)cn2)CCC1` [Example 186], the IC50 lay within 0.025 to 0.1 µM.

With `[2H]C([2H])([2H])N1C(=O)c2cccc(OC(F)F)c2[C@H]2C[C@@H]1c1nn3ccc(-c4cnc([C@]5(N)C[C@@H](O)C5)nc4)cc3c12` [Example 187], the IC50 was less than 0.025 µM.

Turning to `[2H]C([2H])([2H])N1C(=O)c2cccc(OC(F)F)c2[C@H]2C[C@@H]1c1nn3cc(F)c(-c4cnc([C@]5(N)C[C@@](C)(O)C5)c(F)c4)nc3c12` [Example 188], the IC50 was less than 0.025 µM.

For `[2H]C([2H])([2H])N1C(=O)c2cccc(OC(F)F)c2[C@H]2C[C@@H]1c1nn3ccc(-c4cnc([C@]5(N)C[C@@](C)(O)C5)c(F)c4)nc3c12` [Example 189], the IC50 was less than 0.025 µM.

For the compound `C[C@]1(C#N)C[C@](N)(c2ncc(-c3ccn4nc5c(c4c3)[C@@H]3C[C@H]5NC(=O)c4cccc(OC(F)F)c43)cc2F)C1` [Example 190], the IC50 was less than 0.025 µM.

`C[C@@](O)(CC#N)c1ncc(-c2cc3c4c(nn3cc2F)[C@H]2C[C@@H]4c3c(OC(F)F)cccc3C(=O)N2)cn1` [Example 191]: the IC50 was less than 0.025 µM.

On to `C[C@](O)(CC#N)c1ncc(-c2cc3c4c(nn3cc2F)[C@H]2C[C@@H]4c3c(OC(F)F)cccc3C(=O)N2)cn1` [Example 192], for which the half-maximal inhibitory concentration (IC50) is less than 0.025 µM.

Turning to `[2H]C([2H])([2H])N1C(=O)c2cccc(OC(F)F)c2[C@H]2C[C@@H]1c1nn3ccc(-c4cnc([C@]5(N)CCOC5)nc4)nc3c12` [Example 193], the IC50 was less than 0.025 µM.

For `[2H]C([2H])([2H])N1C(=O)c2cccc(OC(F)F)c2[C@H]2C[C@@H]1c1nn3ccc(-c4cnc([C@@]5(N)CCOC5)nc4)nc3c12` [Example 194], the 50% inhibitory concentration (IC50) was in the range of 0.025 to 0.1 µM.

`C[C@]1(C#N)C[C@](N)(c2ncc(-c3ccn4nc5c(c4c3)[C@@H]3C[C@H]5NC(=O)c4cccc(OC(F)F)c43)cn2)C1` [Example 195]: the IC50 was less than 0.025 µM.

Regarding `C[C@]1(O)C[C@](N)(c2ncc(-c3ccn4nc5c(c4c3)[C@@H]3C[C@H]5NC(=O)c4cccc(OC(F)F)c43)cn2)C1` [Example 197], the IC50 was less than 0.025 µM.

In the case of `Cc1cc(P(C)(C)=O)c(F)cc1-c1ccn2nc3c(c2c1)[C@@H]1C[C@H]3NC(=O)c2cccc(OC(F)F)c21` [Example 198], the IC50 is less than 0.025 µM.

In the case of `[2H]C([2H])([2H])N1C(=O)c2cccc(OC(F)F)c2[C@H]2C[C@@H]1c1nn3cc(F)c(-c4cnc(C5(N)CCC5)cn4)cc3c12` [Example 199], the IC50 was less than 0.025 µM.

For the compound `[2H]C([2H])([2H])N1C(=O)c2cccc(OC(F)F)c2[C@H]2C[C@@H]1c1nn3cc(F)c(-c4cnc([C@]5(N)C[C@@](C)(C#N)C5)cn4)cc3c12` [Example 200], the IC50 was less than 0.025 µM.

For `[2H]C([2H])([2H])N1C(=O)c2cccc(OC(F)F)c2[C@H]2C[C@@H]1c1nn3cc(C)c(-c4cnc([C@]5(N)C[C@@](C)(O)C5)nc4)cc3c12` [Example 201], the IC50 was less than 0.025 µM.

As for `O=C1N[C@@H]2C[C@H](c3c(OC(F)F)cccc31)c1c2nn2ccc(-c3ccnc(OC4COC4)c3)cc12` [Example 202], the IC50 was less than 0.025 µM.

As to `NC1(c2ccc(-c3ccn4nc5c(c4c3)[C@@H]3C[C@H]5NC(=O)c4cccc(OC(F)F)c43)cn2)CCC1` [Example 203], the IC50 was less than 0.025 µM.

Regarding `[2H]C([2H])([2H])N1C(=O)c2cccc(OC(F)F)c2[C@H]2C[C@@H]1c1nn3ccc(-c4cnc([C@]5(N)C[C@@H](O)C5)nc4)nc3c12` [Example 204], the IC50 was 0.025 to 0.1 µM.

On to `[2H]C([2H])([2H])N1C(=O)c2cccc(OC(F)F)c2[C@H]2C[C@@H]1c1nn3cc(F)c(-c4cnc([C@]5(N)C[C@@H](O)C5)nc4)nc3c12` [Example 205], for which the IC50 was 0.025 to 0.1 µM.

On to `[2H]C([2H])([2H])N1C(=O)c2cccc(OC(F)F)c2[C@H]2C[C@@H]1c1nn3cc(F)c(-c4cnc(C5(N)COC5)nc4)cc3c12` [Example 206], for which the IC50 is less than 0.025 µM.

As for `[2H]C([2H])([2H])N1C(=O)c2cccc(OC(F)F)c2[C@H]2C[C@@H]1c1nn3ccc(-c4cnc(C5(N)CCC5)cn4)cc3c12` [Example 207], the IC50 was less than 0.025 µM.

Consider `[2H]C([2H])([2H])N1C(=O)c2cccc(OC(F)F)c2[C@H]2C[C@@H]1c1nn3ccc(-c4cnc([C@]5(O)C[C@@](C)(N)C5)nc4)cc3c12` [Example 208], for which the IC50 was less than 0.025 µM.

`[2H]C([2H])([2H])N1C(=O)c2cccc(OC(F)F)c2[C@H]2C[C@@H]1c1nn3ccc(-c4cnc([C@]5(N)C[C@@](C)(O)C5)cn4)cc3c12` [Example 209]: the IC50 is less than 0.025 µM.

Consider `[2H]C([2H])([2H])N1C(=O)c2cccc(OC(F)F)c2[C@H]2C[C@@H]1c1nn3ccc(-c4cnc([C@]5(N)C[C@@](C)(C#N)C5)cn4)cc3c12` [Example 210], for which the IC50 is less than 0.025 µM.

Take `[2H]C([2H])([2H])N1C(=O)c2cccc(OC(F)F)c2[C@H]2C[C@@H]1c1nn3ccc(-c4ncc(C5(N)CCC5)cn4)cc3c12` [Example 211]: the IC50 was less than 0.025 µM.

Regarding `C[C@]1(C#N)C[C@](N)(c2ccc(-c3ccn4nc5c(c4c3)[C@@H]3C[C@H]5NC(=O)c4cccc(OC(F)F)c43)cn2)C1` [Example 212], the IC50 was less than 0.025 µM.

Take `[2H]C([2H])([2H])N1C(=O)c2cccc(OC(F)F)c2[C@H]2C[C@@H]1c1nn3cc(F)c(-c4cnc([C@]5(N)C[C@@](C)(C#N)C5)nc4)nc3c12` [Example 213]: the IC50 was less than 0.025 µM.

For `[2H]C([2H])([2H])N1C(=O)c2cccc(OC(F)F)c2[C@H]2C[C@@H]1c1nn3cc(F)c(-c4cnc([C@]5(N)C[C@@](C)(O)C5)cn4)cc3c12` [Example 214], the 50% inhibitory concentration (IC50) was less than 0.025 µM.
